Test results published in article PMC3483115 (The Journal of General Physiology, 2012).
Ends that are not written are not given here. MBP = maltose-binding protein (N-terminal fusion)

What was measured:
CaM = assay: SEC of TRPV1-CT peptides mixed with CaM; assay type: binding; conditions: Superdex 75, in the presence of Ca^2+, data shown for TRPV1-CT44
TRPV1 K155A [1] = assay type: cell-based, rat; conditions: repeated 1 µM capsaicin, whole cell, extracellular Ca^2+
TRPV1 K155A [2] = conditions: ref Lishko et al., 2007; cited from earlier work
Ca^2+–CaM [3] = biological target: T1, Ca^2+–CaM (Homo sapiens, UniProt P0DP23); conditions: ref Lishko et al., 2007; cited from earlier work
TRPV1 = conditions: ref Liu et al., 2005, Lishko et al., 2007, Lukacs et al.; cited from earlier work
Ca^2+–CaM [4] = biological target: T1, Ca^2+–CaM; assay: CaM-agarose pulldown of MBP-fused TRPV1-CT35 peptides; assay type: binding; conditions: CaM-agarose pulldown (Fig. S2), pH 7.5, 1 mM CaCl2 or EGTA, 4°C, 1 h
Ca^2+–CaM [5] = biological target: T1, Ca^2+–CaM; assay: SEC-based comparison of Ca^2+–CaM affinity, TRPV1-ARD vs. TRPV1-CT; assay type: binding; conditions: suggested by SEC; affinity could not be measured

TRPV1-CT35: 35-residue CaM-binding peptide from the TRPV1-CT (residues 767–801) (EGVKRTLSFSLRSGRVSGRNWKNFALVPLLRDAST; left off: MBP, N-terminal, cleaved)
shift in elution volume with CaM (CaM): undergo a large shift in elution volume when mixed with CaM in the presence of Ca^2+, confirming that a complex is formed

COc1cc(CNC(=O)CCCC/C=C/C(C)C)ccc1O [capsaicin]
tachyphylaxis and activation kinetics, K155A TRPV1 (TRPV1 K155A [1]): little tachyphylaxis and slower activation kinetics
capsaicin sensitivity of K155A TRPV1 (TRPV1 K155A [2]): normal capsaicin sensitivity

K155A: TRPV1 with mutation K155A in the TRPV1-ARD
Ca^2+–CaM binding to TRPV1-ARD with mutation (Ca^2+–CaM [3]): abolish Ca^2+–CaM binding to TRPV1-ARD

phosphatidylinositol-4,5-bisphosphate [PIP2]
effect of PIP2 on TRPV1 (TRPV1): can also potentiate TRPV1

L796P ({MBP}-EGVKRTLSFSLRSGRVSGRNWKNFALVPLPRDAST)
Ca^2+–CaM binding of L796P MBP-TRPV1-CT35 (pulldown) (Ca^2+–CaM [4]): did not significantly disrupt binding of TRPV1-CT35 to Ca^2+–CaM

TRPV1-ARD: N-terminal ankyrin repeat domain of TRPV1 (rat or chicken)
affinity of TRPV1-ARD for Ca^2+–CaM relative to TRPV1-CT (Ca^2+–CaM [5]): the affinity is likely significantly lower than that of the TRPV1-CT
